The data set in a line: Particle size distribution (Malvern Mastersizer S, laser diffraction, by volume). Format: physicochemical. Conditions: for particle size D[v, 0.5]: crystals as isolated after crystallization from isobutyl acetate and drying, mean of nine readings, hydrochloride. The procedure:
The particle size for cinacalcet hydrochloride was measured using a Malvern Mastersizer S particle size analyzer with an MS1 Small Volume Sample Dispersion Unit stirred cell. A 300RF mm lens and a beam length of 2.4 mm were used. Samples for analysis were prepared by dispersing a weighed amount of cinacalcet hydrochloride (approximately 60 mg) in 20 mL of sample dispersant, previously prepared by dilution of 1.5 g of Soybean Lecithin to 200 mL with Isopar G. The suspension was delivered drop-wise to the background-corrected measuring cell filled with dispersant (Isopar G) until the obscuration reached the desired level. Nine repeated readings of the volume distributions were taken. For characterization, the values of D50 and D90 (by volume) were selected and reported as the mean of the nine values measured.

With `C[C@@H](NCCCc1cccc(C(F)(F)F)c1)c1cccc2ccccc12.Cl` [Example 4, cinacalcet hydrochloride], the particle size D[v, 0.9] (crystals as isolated after crystallization (Example 4)) amounted to 404 µm.

On to `C[C@@H](NCCCc1cccc(C(F)(F)F)c1)c1cccc2ccccc12.Cl` [Example 6, cinacalcet hydrochloride], for which the “particle size D[v, 0.5]” value was determined as 65.0 μm.

For `C[C@@H](NCCCc1cccc(C(F)(F)F)c1)c1cccc2ccccc12.Cl` [Example 9, cinacalcet hydrochloride], the “particle size D[v, 0.5]” value worked out at 74.0 μm. This compound also displayed a particle size D[v, 0.9] (crystals as isolated after crystallization (Example 9)) of 518 µm.
